# Experimental data: article PMC5298231, “The Malaria Parasite's Lactate Transporter PfFNT Is the Target of Antiplasmodial Compounds Identified in Whole Cell Phenotypic Screens” (PLoS Pathogens, 2017)
# Values joined by “and” are separate entries in the source; they are usually repeats but may differ in a detail not shown here. Identical values can stand only once. Like-named read-outs stand apart in the source and are kept apart here.
# Legend:
# Dd2 parent parasites = assay: Parasite proliferation assay, Dd2 parent; format: cell-based, Plasmodium falciparum; conditions: Dd2 parent; mean ± SEM; read-out: IC50 value, growth inhibition
# Protocol: Parasite proliferation was measured in 96-well plates using a fluorescent DNA-intercalating dye [45]. The assays were initiated with erythrocytes infected with predominantly ring-stage parasites, and the starting parasitaemia was 0.5–1% and the haematocrit was 1%.
# native PfFNT = target: T1, native PfFNT (Plasmodium falciparum, UniProt O77389); format: cell-based; conditions: native PfFNT in Xenopus oocytes; pH 6.4, 27.5°C, 10 min; mean ± SEM, n = 4; read-out: IC50, inhibition of PfFNT-mediated L-[14C]lactate transport
# T1 construct: expressed in transfected cells; host or cells: Xenopus laevis oocytes (cRNA microinjected, 30 ng)
# T1 sequence (O77389 whole entry): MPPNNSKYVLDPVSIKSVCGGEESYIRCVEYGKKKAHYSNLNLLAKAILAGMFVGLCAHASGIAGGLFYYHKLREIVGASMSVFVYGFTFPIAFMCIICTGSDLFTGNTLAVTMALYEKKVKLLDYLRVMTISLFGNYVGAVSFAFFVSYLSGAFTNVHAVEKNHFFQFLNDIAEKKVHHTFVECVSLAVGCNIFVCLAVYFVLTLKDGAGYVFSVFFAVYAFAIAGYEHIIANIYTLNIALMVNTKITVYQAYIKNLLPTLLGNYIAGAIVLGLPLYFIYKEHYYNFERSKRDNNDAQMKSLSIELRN
# Protocol: The PfFNT-mediated uptake of L-[^14C]lactate by oocytes expressing native PfFNT (black symbols) or oocytes expressing PfFNT^Gly107Ser (white symbols) was measured in the presence of a range of different concentrations of MMV007839 (A) and MMV000972 (B). […] To enable a visual comparison between the native PfFNT and PfFNT^Gly107Ser datasets, only part of the concentration range used for the latter is shown in the main panels. The insets show the data obtained for PfFNT^Gly107Ser over the full concentration range tested. In all cases, the data are averaged from four independent experiments (using oocytes from different frogs) and are shown ± SEM. The uptake was measured at 27.5°C over 10 min at pH 6.4 using 2.7 μM L-[^14C]lactate and 600 μM unlabelled L-lactate.
# The oocyte expression vectors containing PfFNT, PfENT1 and PfCRT were made previously. […] The uptake of radiolabelled substrates was measured 2–5 days post-injection at 27.5°C in ND96 buffer (containing 96 mM NaCl, 2 mM KCl, 1 mM MgCl2, 1.8 mM CaCl2, 10 mM MES and 10 mM Tris-base; pH-adjusted to the value specified in the relevant Figure legends). […] The oocytes were then transferred to separate wells of a 96-well plate, lysed with 10% SDS, and the radioactivity measured as described previously.
# PfENT1 = assay: [3H]hypoxanthine uptake by Xenopus oocytes expressing PfENT1; format: cell-based, Plasmodium falciparum; conditions: 1 μM and 4 μM; pH 6.0, 30 min
# From the text: (PfCRT; from the chloroquine-resistant Dd2 strain) and on [^3H]hypoxanthine transport by oocytes expressing the P. falciparum equilibrative nucleoside/nucleobase transporter PfENT1 [27, 28].
# The oocyte expression vectors containing PfFNT, PfENT1 and PfCRT were made previously. The Gly107Ser mutant form of PfFNT was generated through site-directed mutagenesis of the oocyte expression vector containing wild-type (3D7) PfFNT using primers 9 and 10 (S2 Table). Oocytes were harvested from adult female Xenopus laevis frogs and prepared as described previously. cRNA was made using the mMessage mMachine T7 transcription kit and the MEGAclear kit (Ambion) and microinjected into oocytes as outlined elsewhere. The amount of cRNA injected (per oocyte) was 30 ng for PfFNT, 10 ng for PfENT1, and 20 ng for PfCRT. The uptake of radiolabelled substrates was measured 2–5 days post-injection at 27.5°C in ND96 buffer (containing 96 mM NaCl, 2 mM KCl, 1 mM MgCl2, 1.8 mM CaCl2, 10 mM MES and 10 mM Tris-base; pH-adjusted to the value specified in the relevant Figure legends). […] Each experiment used ten oocytes for each condition tested. The influx of the radiolabelled substrate was halted by removing the reaction buffer and washing the oocytes twice in ice-cold ND96 buffer (3.5 mL). The oocytes were then transferred to separate wells of a 96-well plate, lysed with 10% SDS, and the radioactivity measured as described previously.
# The data are averaged from four to five independent experiments (performed using oocytes from different frogs) and are shown + SEM. In B, the uptake of [^3H]hypoxanthine (0.36 μM) was measured over 30 min at pH 6.0. […] The data are averaged from three to six independent experiments (performed using oocytes from different frogs) and are shown + SEM. […] (TIF) Click here for additional data file.
# [1] = tested on: erythrocytes infected with 3D7 trophozoites; format: cell-based, Plasmodium falciparum; conditions: 1 μM, within 10 min; mean ± SEM, n = 3
# From the text: (§1) Fig 6 The effect of MMV007839 on the volume of parasites and parasitised erythrocytes. […] The data are expressed as a percentage volume increase relative to the starting volume, which for isolated parasites (A) ranged from 35 fL to 46 fL in the individual experiments, and for intact infected erythrocytes (B) ranged from 73 fL to 79 fL. In both cases the data shown are the mean ± SEM from three independent experiments performed on different days. For each condition, the (pre-normalised) volume data for each time point greater than 0 was tested for statistical significance compared to the time zero data for that condition; **P < 0.01, ***P < 0.001.
# (§2) The volume of saponin-isolated 3D7 trophozoites and of erythrocytes infected with 3D7 trophozoites was measured using a Beckman Coulter Multisizer 4 fitted with a 100 μm ‘aperture tube’. […] The electrolyte solution within the aperture tube was the same as the Experimental Saline Solution except that it lacked glucose. For experiments on infected erythrocytes, the infected cells were separated from uninfected erythrocytes using a Miltenyi Biotec VarioMACS Magnet and the cells were maintained at 37°C in bicarbonate-free RPMI supplemented with 25 mM HEPES, additional glucose (11 mM) and 0.2 mM hypoxanthine, and pH-adjusted to 7.40. For these measurements the electrolyte solution within the aperture tube differed only from this medium in that it was not supplemented with hypoxanthine or additional glucose. For each measurement of cell volume, approximately 20,000 pulses (each corresponding to the passage of a single cell through the aperture) were recorded. The median volume of the cells within each sample was determined by fitting a log Gaussian distribution curve to the population data.
# [2] = tested on: saponin-isolated 3D7 P. falciparum trophozoites; format: cell-based, Plasmodium falciparum; conditions: 1 μM, within 10 min; mean ± SEM, n = 3
# From the text: as §1, §2
# 3D7 parasites = conditions: cited from earlier work
# [3] = tested on: isolated 3D7 P. falciparum trophozoites; assay: L-[14C]lactate uptake by isolated 3D7 trophozoites; conditions: pH 6.1, 4°C, 20 s
# [4] = tested on: PfFNT^Gly107Ser mutant parasites (MMV007839-selected culture B); assay: L-[14C]lactate uptake by isolated PfFNT Gly107Ser mutant parasites; conditions: read-out: IC50, inhibition of L-[14C]lactate transport, pH 6.1, 4°C, 20 s, mean ± SEM
# [5] = tested on: erythrocytes infected with 3D7 trophozoites (extracellular medium); assay: LC-MS metabolite profiling, extracellular medium of parasitised erythrocyte suspensions; conditions: 6 μM
structure (smiles),measurement,setting,value
COc1ccc2c(c1)OC(O)(C(F)(F)C(F)(F)F)CC2=O (centres unmarked) [MMV007839],IC50,Dd2 parent parasites,140 ± 20 nM
same,IC50,native PfFNT,22.5 nM and 23 nM
same,Inhibition of [3H]hypoxanthine uptake by PfENT1-expressing oocytes,PfENT1,not inhibiting
same,Volume increase of erythrocytes infected with 3D7 trophozoites,[1],5.4 ± 1.0 fL
same,Volume increase of erythrocytes infected with 3D7 trophozoites relative to starting volume,[1],7.2 ± 1.3%
same,Volume increase of isolated parasites,[2],5.1 ± 0.8 fL
same,Volume increase of isolated parasites relative to starting volume,[2],13.1 ± 2.8%
same,IC50,"3D7 parasites; ref [1] Van Voorhis et al. 2016, read-out: IC50 for killing of 3D7 parasites",280 nM
same,IC50,"3D7 parasites; ref http://www.mmv.org/research-development/malaria-box-supporting-information, read-out: IC50 against 3D7 parasites, other groups",283 to 442 nM
same,Inhibition of L-[14C]lactate influx,[3]; 0.5 μM,inhibited L-[^14C]lactate influx to a similar degree
same,Inhibition of L-[14C]lactate uptake,[3]; 2 μM,complete inhibition
same,IC50,[4],16300 ± 4400 nM
same,"Extracellular lactate level, treated vs untreated",[5]; not statistically significant,decreased
same,"Extracellular pyruvate level, treated vs untreated",[5]; not statistically significant,increased
same,"Extracellular α-ketoglutarate level, treated vs untreated",[5]; not statistically significant,decreased
same,"Extracellular 3-phosphoglycerate level, treated vs untreated",[5]; statistically significant,increased
same,"Extracellular phosphoenolpyruvate level, treated vs untreated",[5]; statistically significant,increased
